The results in this text go back to US11242361B2 (Proteostasis Therapeutics, Inc., priority 2013, dated 2022).

For this experiment, the target named is USP14 (Homo sapiens (Human), UniProt P54578). The experiment can be described thus: USP14 Inhibition Assay. The format is biochemical. Particulars: average value from a minimum of two experimental determinations, read-out: IC50 Category. How it is done:
Example 17: USP14 Inhibition Assay
“I” in the Table below designates an IC50 of >5 μM, “II” in the Table below designates and IC50 between 0.5 and 5 μM, and “III” designates an IC50<0.5 μM. The IC50 values in the Table below represent the average value from a minimum of two experimental determinations.

Where only a bound is given, the exact number is not on record here.

USP14, sequence (P54578 whole entry, looked up): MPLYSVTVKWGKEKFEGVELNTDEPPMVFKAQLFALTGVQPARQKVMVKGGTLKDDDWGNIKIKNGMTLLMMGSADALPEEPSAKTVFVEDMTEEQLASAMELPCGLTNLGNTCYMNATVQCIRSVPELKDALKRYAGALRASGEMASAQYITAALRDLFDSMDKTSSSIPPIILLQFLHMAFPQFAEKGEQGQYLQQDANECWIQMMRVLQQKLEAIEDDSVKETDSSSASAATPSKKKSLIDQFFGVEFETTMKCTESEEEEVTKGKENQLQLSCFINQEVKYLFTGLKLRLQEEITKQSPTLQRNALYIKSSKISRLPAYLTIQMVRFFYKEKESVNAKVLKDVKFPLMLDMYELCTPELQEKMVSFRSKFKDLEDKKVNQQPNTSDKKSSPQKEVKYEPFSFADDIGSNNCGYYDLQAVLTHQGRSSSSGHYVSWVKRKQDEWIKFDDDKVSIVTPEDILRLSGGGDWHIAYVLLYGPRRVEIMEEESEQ

With `Cc1c(C(=O)CN2CCCCC2)c2ccc(CN(C)C)cc2n1-c1ccc(Cl)cc1` [Compound 188, 1-(1-(4-chlorophenyl)-6-((Dimethylamino)methyl)-2-methyl-1H-indol-3-yl)-2-(piperidin-1-yl)ethan-1-one], the IC50 is below 500 nM.

Turning to `CCOC(=O)C[C@H](C)c1cnc2c(C(=O)CN3CCCCC3)c(C)n(-c3ccc(C#N)cc3)c2c1` [Compound 351, Ethyl (S)-3-(1-(4-Cyanophenyl)-2-methyl-3-(2-(piperidin-1-yl)acetyl)-1H-pyrrolo[3,2-b]pyridin-6-yl)butanoate], the IC50 is below 500 nM. As to `Cc1c(C(=O)CN2CCC(O)CC2)c2ccccc2n1-c1ccc(Cl)nc1` [Compound 392], the half-inhibitory concentration (IC50) was in the range of 500 to 5000 nM. Consider `Cc1c(C(=O)CN2CCCCC2)c2ncc(CC(=O)NC3CC3)cc2n1-c1ccc(C#N)cc1` [Compound 381, 2-(1-(4-Cyanophenyl)-2-methyl-3-(2-(piperidin-1-yl)acetyl)-1H-pyrrolo[3,2-b]pyridin-6-yl)-N-cyclopropylacetamide], for which the IC50 is below 500 nM.

For the molecule `Cc1c(C(=O)CN2CCC(NC(=O)c3ccc(N=[N+]=[N-])cc3)CC2)c2ccccc2n1-c1ccc(Cl)cc1` [Compound 147], the IC50 was in the range of 500 to 5000 nM.

On to `COC(=O)c1ccc2c(C(O)CN3CCCCC3)c(C)n(-c3ccc(Cl)cc3)c2c1` (centres unmarked) [Compound 126, Methyl 1-(4-Chlorophenyl)-3-(1-hydroxy-2-(piperidin-1-yl)ethyl)-2-methyl-1H-indole-6-carboxylate], for which the IC50 is above 5000 nM.

`COc1ccc2c(n1)c(C(=O)CN1CCCCC1)c(C)n2-c1ccc(C#N)cc1` [Compound 177, 4-(5-Methoxy-2-methyl-3-(2-(piperidin-1-yl)acetyl)-1H-pyrrolo[3,2-b]pyridin-1-yl)benzonitrile]: the IC50 was below 500 nM. As to `Cc1c(C(=O)CN2CCCCC2)c2cc(Oc3ccccc3)ccc2n1-c1ccc(Cl)cc1` [Compound 145], the IC50 lay within 500 to 5000 nM. For `Cc1c(C(=O)CN2CCS(=O)(=O)CC2)c2ncc(Br)cc2n1-c1ccc(C#N)cc1` [Compound 327], the IC50 was above 5000 nM. For `CCCOc1cnc2c(C(=O)CN3CCC(O)CC3)c(C)n(-c3ccc(C#N)cc3)c2c1` [Compound 347] the value was below 500 nM; for `Cc1c(C(=O)CN2CCCCC2)c2ncccc2n1-c1ccc(Cl)nc1` [Compound 149], 500 to 5000 nM. As to `CCOC(=O)Cc1ccc2c(C(=O)CN3CCCCC3)c(C)n(-c3ccc(C#N)cc3)c2c1` [Compound 197], the IC50 is below 500 nM. `CCOC(=O)C[C@@H](C)c1cnc2c(C(=O)CN3CCCCC3)c(C)n(-c3ccc(C#N)cc3)c2c1` [Compound 350, Ethyl (R)-3-(1-(4-Cyanophenyl)-2-methyl-3-(2-(piperidin-1-yl)acetyl)-1H-pyrrolo[3,2-b]pyridin-6-yl)butanoate]: the IC50 was below 500 nM. With `Cc1c(C(=O)CN2CCCCC2)c2cnccc2n1-c1ccc(C#N)cc1` [Compound 151, 4-(2-Methyl-3-(2-(piperidin-1-yl)acetyl)-1H-pyrrolo[3,2-c]pyridin-1-yl)benzonitrile], the IC50 was 500 to 5000 nM. On to `CC(=O)Oc1ccc2c(C(=O)CN3CCCCC3)c(C)n(-c3ccc(Cl)cc3)c2c1` [Compound 172, 1-(4-Chlorophenyl)-2-methyl-3-(2-(piperidin-1-yl)acetyl)-1H-indol-6-yl Acetate], for which the IC50 is below 500 nM. Turning to `Cc1c(C(=O)CN2CCC(O)CC2)c2ccccc2n1-c1ccncc1` [Compound 396], the IC50 is above 5000 nM. In the case of `Cc1c(C(=O)CN2CCCCC2)c2ncc(C(F)F)cc2n1-c1ccc(C#N)cc1` [Compound 301, 4-(6-(Difluoromethyl)-2-methyl-3-(2-(piperidin-1-yl)acetyl)-1H-pyrrolo[3,2-b]pyridin-1-yl)benzonitrile] it was below 500 nM. For `Cc1c(C(=O)CN2CCCCC2)c2ccncc2n1-c1ccc(C#N)cc1` [Compound 144, 4-(2-Methyl-3-(2-(piperidin-1-yl)acetyl)-1H-pyrrolo[2,3-c]pyridin-1-yl)benzonitrile] the value was 500 to 5000 nM. For `COc1cc2c(C(=O)CN3CCCCC3)c(C)n(-c3ccc(C#N)cc3)c2cc1OC(F)(F)F` [Compound 193], the IC50 was in the range of 500 to 5000 nM. Turning to `COc1cnc2c(C(=O)CN3CCCCC3)c(C)n(-c3ccc(C#N)cc3)c2c1` [Compound 326, 4-(6-Methoxy-2-methyl-3-(2-(piperidin-1-yl)acetyl)-1H-pyrrolo[3,2-b]pyridin-1-yl)benzonitrile], the IC50 was below 500 nM.

In the case of `Cc1c(C(=O)CN2CCCCC2)c2ccc(CC(N)=O)cc2n1-c1ccc(C#N)cc1` [Compound 203, 2-(1-(4-Cyanophenyl)-2-methyl-3-(2-(piperidin-1-yl)acetyl)-1H-indol-6-yl)acetamide], the IC50 was below 500 nM. With `Cc1c(C(=O)CN2CCCCC2)c2ccc(CO[Si](C)(C)C(C)(C)C)cc2n1-c1ccc(Cl)cc1` [Compound 153, 1-(6-(((tert-Butyldimethylsilyl)oxy)methyl)-1-(4-chlorophenyl)-2-methyl-1H-indol-3-yl)-2-(piperidin-1-yl)ethan-1-one], the IC50 is 500 to 5000 nM. In the case of `Cc1c(C(=O)CN2CCCCC2)c2ncc(CCC(=O)NCCN=[N+]=[N-])cc2n1-c1ccc(C#N)cc1` [Compound 304] it was below 500 nM.

On to `Cc1cnc2c(C(=O)CN3CCCC(F)C3)c(C)n(-c3ccc(C#N)cc3)c2c1` (centres unmarked) [Compound 189], for which the IC50 is below 500 nM. Turning to `C=Cc1ccc2c(C(=O)CN3CCCCC3)c(C)n(-c3ccc(C#N)cc3)c2c1` [Compound 206, 4-(2-Methyl-3-(2-(piperidin-1-yl)acetyl)-6-vinyl-1H-indol-1-yl)benzonitrile], the IC50 was below 500 nM.

`Cc1ccc2c(c1)c(C(=O)CN1CCCCC1)c(C)n2-c1ccc(Cl)cc1` [Compound 156]: the IC50 is below 500 nM. Turning to `Cc1c(C(=O)CN2CCNC(=O)C2)c2ncc(Br)cc2n1-c1ccc(C#N)cc1` [Compound 344], the IC50 was above 5000 nM. Take `Cc1c(C(=O)CN2CCCCC2)c2ncccc2n1-c1ccc(C#N)nc1` [Compound 181, 5-(2-Methyl-3-(2-(piperidin-1-yl)acetyl)-1H-pyrrolo[3,2-b]pyridin-1-yl)picolinonitrile]: the IC50 is below 500 nM. In the case of `COCCOc1cnc2c(C(=O)CN3CCCCC3)c(C)n(-c3ccc(Cl)cc3)c2c1` [Compound 364], the IC50 is below 500 nM.

In the case of `CCOC(=O)Cc1cnc2c(C(=O)CN3CCCCC3)c(C)n(-c3ccc(C#N)cc3)c2c1` [Compound 384, Ethyl 2-(1-(4-Cyanophenyl)-2-methyl-3-(2-(piperidin-1-yl)acetyl)-1H-pyrrolo[3,2-b]pyridin-6-yl)acetate], the IC50 is below 500 nM. In the case of `Cc1c(C(=O)CN2CCC(O)CC2)c2ncccc2n1-c1ccc(C#N)cc1` [Compound 335], the IC50 was below 500 nM. In the case of `Cc1c(C(=O)CN2CCCCC2)c2cccnc2n1-c1ccc(C#N)cc1` [Compound 141, 4-(2-Methyl-3-(2-(piperidin-1-yl)acetyl)-1H-pyrrolo[2,3-b]pyridin-1-yl)benzonitrile], the concentration for half-maximal inhibition (IC50) is 500 to 5000 nM. Regarding `O=C(CN1CCCCC1)c1cn(-c2ccc(Cl)cc2)c2cc(O)ccc12` [Compound 120], the IC50 is above 5000 nM.

Regarding `Cc1c(C(=O)CN2CCC(O)CC2)c2ccccc2n1-c1cccnc1` [Compound 395], the IC50 is above 5000 nM. In the case of `Cc1cc2c(nc1C)c(C(=O)CN1CCCCC1)c(C)n2-c1ccc(C#N)cc1` [Compound 195], the IC50 was below 500 nM.

One may read the IC50 as the point on the concentration scale where inhibition reaches its midpoint.
